Measurements: article PMC9616876, “Structures of the CcmABCD heme release complex at multiple states” (Nature Communications, 2022)

Columns and labels:
[1] = biological target: T1, CcmABCD (ATP-binding site in CcmA) (Escherichia coli, UniProt P33931); assay: cryo-EM structure
T1 construct: full-length CcmA2B2C1D1, N-terminal His6 on CcmA; CcmABCDE operon co-expressed in E. coli BL21(DE3), CcmE not observed in purified complex; DDM-solubilised membranes; with Heme exporter protein B; Heme exporter protein C; Heme exporter protein D

[2] = biological target: the molecule itself; assay: cryo-EM structure; CcmABCD purified in DDM (20 mM Tris-HCl pH 7.5, 50 mM NaCl, 0.03% DDM), ~12 mg/ml; apo, with 3.5 mM MgCl2 and AMP-PNP, or with 3.5 mM MgCl2, ATP, heme b and 1 mM DTT; closed, semi-open and open NBD states

Molecule: Nc1ncnc2c1ncn2[C@@H]1O[C@H](COP(=O)(O)OP(=O)(O)NP(=O)(O)O)[C@@H](O)[C@H]1O [AMP-PNP]
- cryo-EM structure ([1]; 3.5 mM AMP-PNP, 3.5 mM MgCl2, two AMP-PNP, closed NBD state): CcmABCD bound with AMP-PNP in closed NBD state

Molecule: Nc1ncnc2c1ncn2[C@@H]1O[C@H](COP(=O)(O)OP(=O)(O)OP(=O)(O)O)[C@@H](O)[C@H]1O [ATP]
- cryo-EM structure ([1]; 3.5 mM ATP, 3.5 mM MgCl2, 3.5 mM heme b, 1 mM DTT, two ATP in closed NBD state (7F04), one ATP in semi-open NBD state (7VFP), ATPase activity also measured): CcmABCD bound with heme b and double ATPs in closed NBD state

Molecule: O=P(O)(O)O [inorganic phosphate]
- cryo-EM structure ([1]; no nucleotide added, one phosphate per CcmA, closed NBD state, membranes purified in potassium phosphate buffer): each CcmA binds one inorganic phosphate

B1: CcmB (natural protein, E. coli BL21 (DE3))
chain: MMFWRIFRLELRVAFRHSAEIANPLWFFLIVITLFPLSIGPEPQLLARIAPGIIWVAALLSSLLALERLFRDDLQDGSLEQLMLLPLPLPAVVLAKVMAHWMVTGLPLLILSPLVAMLLGMDVYGWQVMALTLLLGTPTLGFLGAPGVALTVGLKRGGVLLSILVLPLTIPLLIFATAAMDAASMHLPVDGYLAILGALLAGTATLSPFATAAALRISIQ
notes: CcmB, integral membrane protein with six transmembrane helices, gene amplified from the E. coli BL21 (DE3) genome; also called CcmB1; CcmB2
- stoichiometry N [2]: 2

B2: CcmA (natural protein, E. coli BL21 (DE3))
chain: MGMLEARELLCERDERTLFSGLSFTLNAGEWVQITGSNGAGKTTLLRLLTGLSRPDAGEVLWQGQPLHQVRDSYHQNLLWIGHQPGIKTRLTALENLHFYHRDGDTAQCLEALAQAGLAGFEDIPVNQLSAGQQRRVALARLWLTRATLWILDEPFTAIDVNGVDRLTQRMAQHTEQGGIVILTTHQPLNVAESKIRRISLTQTRAA
notes: The whole CcmABCDE gene stretch was amplified by PCR from the genome; also called hexahistidine-tagged CcmA; NBD; not shown: His6, N-terminal, kept
- stoichiometry N [2]: 2
